Assay results: patent US5863905A, “2',5'-phosphorothioate/phosphodiester oligoadenylates and anti-viral uses thereof” (Temple University-Of The Commonwealth System of Higher …, priority 1997, dated 1999)

Tests used:
[1] = test system: HIV-1 reverse transcriptase; test: HIV-1 reverse transcriptase activity in culture supernatant of infected Sup T1 cells; type: cell-based; settings: 300 μM (adenosine and adenine 900 μM), 6 h pre-treatment, 96 h post-infection; average of triplicates
Experimental: Sup T1 cells were treated with 2-5A or a phosphorothioate/phosphodiester derivative at 300 μM for 6 hours and then infected with HIV-1 at a multiplicity of infection (M.O.I) of approximately 0.1. Adenosine and adenine were tested at 900 μM. At 96 hours post-infection, culture supernatant was removed and HIV-1 RT activity was assayed in triplicate as described by Henderson et al., Virology 182:186-198 (1991). Briefly in this method, 25 μl of culture supernatant was added to a 50 μl cocktail containing 50 mM Tris (pH 8.0), 20 mM dithiothreitol, 10 mM MgCl2, 60 mM NaCl, 0.05 Nonidet p-40, 5 μg/ml oligodeoxythymidylic acid, 10 μg/ml polyriboadenylic acid, 10 μM deoxythymidine triphosphate and 1 mCi [^32 p]thymidine 5'-triphosphate. The mixture was incubated at 37° C. for 2 hours. Fifty microliters of the cocktail were then spotted onto diethylaminoethyl (DEAE) paper, dried, washed with 2× SSC solution (three times for 10 minutes each time) and 95% ethanol (two times for 5 minutes each time), dried and exposed to radiographic film for 18 to 24 hours at -80° C. The filters were cut and final quantitation was determined by scintillation spectrometry.

[2] = test system: serum phosphodiesterases; test: Stability of 2-5A core derivatives to serum phosphodiesterase; type: in vitro ADME, fetal calf; settings: 300 μM, 37° C.; for Hydrolysis Products: 10% fetal calf serum, 6 h, identified by HPLC; for % Hydrolysis: RPMI-1640 + 10% fetal calf serum, 6 h (A2, A3: 20 min)
Experimental: The stability of authentic 2-5A and phosphorothioate/phosphodiester trimer and tetramer core derivatives (300 μM) was determined by incubation in 200 μL of RPMI-1640 medium supplemented with 10% fetal calf serum in 5% CO2 -in-air at 37° C. Aliquots (30 μL) were removed at time zero and 6 hours. The hydrolysis products were identified by HPLC as described in Kariko et al. , Biochemistry 26: 7127-7135 (1987).
No hydrolysis of the phosphorothioate/phosphodiester trimer core derivatives was observed. However, the phosphorothioate/phosphodiester tetramer core derivatives were hydrolyzed from the 5'- or 2',3'-terminus, depending on the location of the phosphorothioate-substituted internucleotide linkage.

[3] = test system: HIV-1 strain IIIB; test: Inhibition of HIV-1-induced syncytia formation (infected centers assay); type: cell-based; settings: for inhibition of syncytia formation (in words): 3×10^-4 M (adenosine 9×10^-4 M); for inhibition of HIV-1-induced syncytia formation: 3×10^-4 M, PBL infected with HIV-1 IIIB, Sup T1 cells, read at 72 h
Description: FIG. 5A represents the results of an assay performed according to the method of Henderson et al., Virology 182: 186-198 (1991), indicating the inhibition of HIV-1 (IIIB)-induced syncytia formation by adenosine, 2-5A trimer or tetramer core or 2',5'- phosphorothioate/phosphodiester trimer derivatives: ARp *ApA, ASp *ApA, ApARp *A, ApASp *A, ARp *ApApA, ASp *ApApA, ApARp *ApA, ApASp *ApA, ApApARp *A, ApApASp *A.
FIG. 5B is the results of an assay performed according to the method of FIG. 5A with a 2',5'-phosphorothioate/phosphodiester tetramer derivative of 2-5A core.
The infected centers assay as described by Henderson et al., Virology 182: 186-198 (1991), was used to measure the ability of the phosphorothioate/phosphodiester derivatives of 2-5A trimer and tetramer cores to inhibit HIV-1 induced syncytia formation, an indicator of HIV-1 replication in T cells. Freshly isolated peripheral blood lymphocytes (PBL) were treated with 2-5A or derivatives for 2 h and infected with HIV-1 strain IIIB at a m.o.i. of approximately 0.1. The infected PEL were maintained in RPMI-1640 medium supplemented with 10% (v/v) heat-inactivated fetal calf serum at 37° C. in a humidified 5% CO2 in air atmosphere. After 48 h, the cells were washed twice in Hank's balaned salt solution, serially diluted and seeded into multiple wells of a 96-well microtiter plate. Immediately, 2×10^5 exponentially growing Sup T1 cells were added to each well; Sup T1 cells readily form a syncytium with a cell which is productively infected with HIV-1. The wells were examined daily for the presence of syncytia, using a tissue culture microscope. The first signs of syncytia formation can be seen in 12 h, with some complete syncytia developing by 24 h. Final results were read at 72 h. Each syncytium was counted as a single infected cell. The number of syncytia per seeded cell is determined and expressed as an infected center per infected cell. In the control (no 2-5A derivative added), 100% syncytia formation was equivalent to 12±3 syncytia per 200 HIV-1 infected cells.

[4] = test system: RNase L; test: rRNA cleavage assay in L929 cell extracts (activation of RNase L); type: biochemical; settings: 1 h at 30° C., > = no activation up to this concentration
Experimental: FIG. 2A represents the results of a ribosomal RNA cleavage assay with 2',5'-phosphorothioate/phosphodiester trimer core 2-5A derivatives. The procedure was performed according to the method of Kariko et al., Biochemistry 26: 7127-7135 (1987). 2-5A oligomer (phosphodiester internucleotide linkage) is also included for comparison. L929 cell extracts were incubated in the absence (lane 1) or presence of p3 A3 at 10^-8 M (lane 2), ARp *ApA at 10^-6 M (lane 3), ASp *ApA at 10^-6 M (lane 4), ApARp *A at 10^-6 M (lane 5), ApASp *A at 10^-6 M (lane 6) or A3 at 10^-6 M (lane 7). The positions of 28S and 18S rRNA are shown; the arrows indicate the positions of the well-characterized specific cleavage products (SCP) of RNase L.
FIG. 2B represents the results of a ribosomal RNA cleavage assay performed according to the method of FIG. 2A with 2',5'-phosphorothioate/phosphodiester trimer 5'-monophosphate derivatives. L929 cell extracts were incubated in the absence (lane 1) or presence of p3 A3 at 2×10^-9 M (lane 2), pA3 at 10^-6 M (lane 3), pARp *ApA at 10^-7 M (lane 4), pASp *ApA at 10^-7 M (lane 5), pApARp *A at 2×10^-9 M (Lane 6), pApASp *A at 10^-7 M (lane 7).
FIG. 3A represents the results of a ribosomal RNA cleavage assay performed according to the method of FIG. 2A with 2',5'-phosphorothioate/phosphodiester tetramer core 2-5A derivatives. 2-5A oligomer (phosphodiester internucleotide linkage) is also included for comparison. L929 cell extracts were incubated in the absence (lane 1) or presence of p3 A4 at 10^-8 M (lane 2), A4 at 10^-5 M (lane 3), ARp *ApApA at 10^-5 M (lane 4), ASp *ApApA at 10^-5 M (lane 5), ApARp *ApA at 10^-5 M (lane 6), ApASp *ApA at 10^-5 M (lane 7), ApApARp *A at 10^-5 M (lane 8) or ApApASp *A at 10^-5 M (lane 9).
FIG. 3B represents the results of a ribosomal RNA cleavage assay performed according to the method of FIG. 2A with 2',5'-phosphorothioate/phosphodiester tetramer 5'-monophosphate derivatives. L929 cell extracts were incubated in the absence (lane 1) or presence of p3 A4 at 10^-8 M (lane 2), pA4 at 10^-6 M (lane 3), pARp *ApApA at 10^-6 M (lane 4), pASp *ApApA at 10^-6 M (lane 5), pApARp *ApA at 10^-8 M (lane 6), pApASp *ApA at 10^-5 M (lane 7), pApApARp *A at 10^-7 M (lane 8) or pApApASp *A at 10^-7 M (lane 9).
Activation of RNase L by the phosphorothioate/phosphodiester trimer and tetramer 2-5A derivatives was also measured in a rRNA cleavage assay using L929 cell extracts according to the method of Kariko et al. (1987), supra, in which extracts of L929 cells were incubated for 1 h at 30° C. in the presence or absence of 2-5A or 2-5A derivative. […] Authentic p3 A3 was active at 1×10^-8 M (FIG. 2A, lane 2). The corresponding 5'-monophosphates, pARp *ApA, pASp *ApA and pApARp *A, activated at 1×10^-7 M, 1×10^-7 M, and 2×10^-9 M, respectively (FIG. 2B, lanes 4-6), as compared with pA3 which was active at 1×10^-6 M (lane 3).

[5] = test system: 2-5A synthetase/RNase L pathway; HHV-6; settings: CFS patients, cited from earlier work

Substance	Percent Inhibition of HIV-1 Reverse Transcriptase [1] [%]	Hydrolysis Products [2]	% Hydrolysis [2] [%]	inhibition of syncytia formation (in words) [3]	inhibition of HIV-1-induced syncytia formation [3] [%]	concentration at which RNase L is activated to cleave rRNA to SCP [4] [nM]	HHV-6 activity following therapy ([5]; p<0.01)	mean basal latent 2-5A synthetase level in PBMC extracts following therapy ([5]; controls 2035±325, P<0.001)	2-5A synthetase/RNase L pathway following therapy ([5]; in temporal association with clinical and neuropsychological improvement)
Adenylyl-(2',5')-(PR)-P-thioadenylyl-(2',5')-adenosine [ApARp *A]	31	not hydrolyzed	0	most efficient inhibitors of HIV-1 induced syncytia formation	100	1000			
Adenylyl-(2',5')-(PS)-P-thioadenylyl-(2',5')-adenosine [ApASp *A]	78	not hydrolyzed	0	most efficient inhibitors of HIV-1 induced syncytia formation	78	> 1000			
poly (I)-poly (C12 U)							significant decrease in HHV-6 activity	610±220 picomoles 2-5A/mg protein/hour	down regulation of the 2-5A synthetase/RNase L pathway
